How the values were obtained:
Test in all cases: relative viability (nuclei count vs DMSO), 5 days (fraction); higher = more cells survive
KN-93 + OSI-027 = compound: CN(C/C=C/C1=CC=C(C=C1)Cl)CC2=CC=CC=C2N(CCO)S(=O)(=O)C3=CC=C(C=C3)OC [KN-93] + COc1cccc2cc(-c3nc([C@H]4CC[C@H](C(=O)O)CC4)n4ncnc(N)c34)[nH]c12 [OSI-027] (partner 0.5 µM)
In short: (§1)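 The day after seeding in 1536-well plates, lung cancer cell lines were treated by pin tool with a single drug, or with a fixed anchor-drug dose together with five library-drug doses (not always all listed) in √10 steps. After 5 days, a combined fix-and-stain solution (final 0.05% Triton X-100, 1% formaldehyde, 1 ug/ml Hoechst) was added. Nuclei counted on 4× images gave relative viability as treated counts over vehicle counts, reported as the median of duplicate plates.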

KN-93 + Crizotinib = compound: CN(C/C=C/C1=CC=C(C=C1)Cl)CC2=CC=CC=C2N(CCO)S(=O)(=O)C3=CC=C(C=C3)OC [KN-93] + C[C@@H](Oc1cc(-c2cnn(C3CCNCC3)c2)cnc1N)c1c(Cl)ccc(F)c1Cl [Crizotinib] (partner 1 µM)
In short: as §1

KN-93 + Phenformin = compound: CN(C/C=C/C1=CC=C(C=C1)Cl)CC2=CC=CC=C2N(CCO)S(=O)(=O)C3=CC=C(C=C3)OC [KN-93] + N=C(N)NC(=N)NCCc1ccccc1 [Phenformin] (partner 250 µM)
In short: as §1

KN-93 + Alpelisib = compound: CN(C/C=C/C1=CC=C(C=C1)Cl)CC2=CC=CC=C2N(CCO)S(=O)(=O)C3=CC=C(C=C3)OC [KN-93] + Cc1nc(NC(=O)N2CCC[C@H]2C(N)=O)sc1-c1ccnc(C(C)(C)C(F)(F)F)c1 [Alpelisib] (partner 2 µM)
In short: as §1

KN-93 + Foretinib = compound: CN(C/C=C/C1=CC=C(C=C1)Cl)CC2=CC=CC=C2N(CCO)S(=O)(=O)C3=CC=C(C=C3)OC [KN-93] + COc1cc2c(Oc3ccc(NC(=O)C4(C(=O)Nc5ccc(F)cc5)CC4)cc3F)ccnc2cc1OCCCN1CCOCC1 [Foretinib] (partner 0.25 µM)
In short: as §1

| Cell Line | relative viability (KN-93 + OSI-027; first compound 0.08 µM) | relative viability (KN-93 + OSI-027; first compound 0.253 µM) | relative viability (KN-93 + OSI-027; first compound 2.53 µM) | relative viability (KN-93 + OSI-027; first compound 8 µM) | relative viability (KN-93 + Crizotinib; first compound 0.08 µM) | relative viability (KN-93 + Crizotinib; first compound 0.253 µM) | relative viability (KN-93 + Crizotinib; first compound 2.53 µM) | relative viability (KN-93 + Crizotinib; first compound 8 µM) | relative viability (KN-93 + Phenformin; first compound 0.08 µM) | relative viability (KN-93 + Phenformin; first compound 0.253 µM) | relative viability (KN-93 + Phenformin; first compound 2.53 µM) | relative viability (KN-93 + Phenformin; first compound 8 µM) | relative viability (KN-93 + Alpelisib; first compound 0.08 µM) | relative viability (KN-93 + Alpelisib; first compound 0.253 µM) | relative viability (KN-93 + Alpelisib; first compound 2.53 µM) | relative viability (KN-93 + Alpelisib; first compound 8 µM) | relative viability (KN-93 + Foretinib; first compound 0.08 µM) | relative viability (KN-93 + Foretinib; first compound 0.253 µM) | relative viability (KN-93 + Foretinib; first compound 2.53 µM) | relative viability (KN-93 + Foretinib; first compound 8 µM) |
| --- | --- | --- | --- | --- | --- | --- | --- | --- | --- | --- | --- | --- | --- | --- | --- | --- | --- | --- | --- | --- |
| 201T | 0.789 | 0.558 | 0.884 | 0.373 | 1.01 | 1.05 | 1.01 | 0.973 | 0.47 | 0.424 | 0.51 | 0.452 | 1.17 | 0.966 | 1.01 | 0.935 | 1.06 | 0.711 | 1.08 | 0.566 |
| A549 | – | – | – | – | 0.847 | 1.05 | 0.944 | 0.28 | 0.183 | 0.347 | 0.922 | 0.132 | 0.717 | 0.914 | 0.849 | 0.546 | 0.911 | 1.14 | 0.995 | 0.585 |
| A-427 | 0.507 | 0.621 | 0.462 | 0.265 | 0.852 | 0.943 | 0.798 | 0.436 | 0.322 | 0.35 | 0.278 | 0.229 | 1.07 | 1.18 | 1.08 | 0.975 | 1.06 | 1.11 | 1.04 | 0.807 |
| ABC-1 | 0.455 | 0.294 | 0.509 | 0.257 | 1.05 | 1.28 | 0.498 | 0.219 | 0.248 | 0.242 | 0.248 | 0.216 | 0.893 | 1.27 | 1.13 | 0.715 | 0.956 | 1.17 | 0.873 | 0.314 |
| BEN | 0.323 | 0.308 | 0.304 | 0.304 | – | 1.13 | 1.02 | 0.67 | 0.239 | 0.26 | 0.295 | 0.275 | – | 1.37 | 1.06 | 0.806 | 0.917 | 0.599 | 0.714 | 0.455 |
| CAL-12T | 0.718 | 0.59 | 0.657 | 0.434 | 0.623 | 0.834 | 0.531 | 0.339 | 0.557 | 0.474 | 0.563 | 0.407 | 0.859 | 1.44 | 1.57 | 1.06 | 1.01 | 1.27 | 1.09 | 0.565 |
| COR-L23 | 0.748 | 1.02 | 0.798 | 0.353 | 0.697 | 0.764 | 0.673 | 0.455 | 0.432 | 0.569 | 0.583 | 0.387 | 0.743 | 1.01 | 0.745 | 0.601 | 0.907 | 1.08 | 1.14 | 0.654 |
| COR-L 105 | 0.618 | 0.771 | 0.588 | 0.437 | 0.696 | 0.873 | 0.807 | 0.436 | 0.559 | 0.443 | 0.517 | 0.366 | 0.866 | 0.991 | 0.918 | 0.74 | 0.987 | 1.05 | 1.02 | 0.73 |
| ChaGo-K-1 | 0.585 | 0.512 | 0.449 | 0.426 | 1.12 | 1.23 | 1.11 | 0.722 | 0.456 | 0.56 | 0.466 | 0.453 | – | – | – | – | 0.866 | 0.981 | 0.832 | 0.669 |
| EKVX | 0.536 | 0.75 | 0.743 | 0.552 | 0.642 | 0.995 | 0.81 | 0.719 | 0.23 | 0.224 | 0.239 | 0.203 | 0.728 | 0.845 | 1.02 | 0.692 | 0.849 | 0.758 | 0.911 | 0.22 |
| EMC-BAC-2 | 0.373 | 0.355 | 0.389 | 0.337 | 0.773 | 0.792 | 0.772 | 0.573 | 0.501 | 0.596 | 0.548 | 0.458 | 0.683 | 0.732 | 0.928 | 0.676 | 0.962 | 1.05 | 0.938 | 0.752 |
| EPLC-272H | 0.218 | 0.295 | 0.297 | 0.219 | 1.05 | 1.01 | 1.04 | 0.661 | 0.276 | 0.299 | 0.276 | 0.25 | 0.947 | 1.02 | 1.04 | 0.792 | 0.621 | 0.762 | 0.573 | 0.389 |
| H3255 | 0.615 | 0.515 | 0.619 | 0.431 | 0.995 | 0.952 | 0.48 | 0.623 | 0.383 | 0.339 | 0.401 | 0.362 | 0.664 | 0.788 | 0.631 | 0.532 | 0.986 | 0.902 | 0.864 | 0.807 |
| HARA | 0.427 | 0.457 | 0.413 | 0.138 | 1.04 | 1.51 | 0.946 | 0.51 | 0.329 | 0.477 | 0.543 | 0.148 | 0.811 | 0.775 | 0.705 | 0.471 | 0.918 | 1.37 | 0.887 | 0.532 |
| HCC-15 | 0.558 | 0.722 | 0.636 | 0.527 | 0.664 | 0.961 | 0.795 | 0.682 | 0.401 | 0.522 | 0.685 | 0.42 | 0.816 | 1.09 | 0.884 | 0.744 | 0.914 | 1.12 | 1.11 | 0.807 |
| HCC-44 | 0.547 | 0.482 | 0.555 | 0.391 | 0.732 | 0.785 | 0.858 | 0.502 | 0.314 | 0.202 | 0.331 | 0.16 | 0.775 | 0.746 | 0.99 | 0.549 | – | – | – | – |
